How the values were obtained:
[1] = system: A549 (Human lung adenocarcinoma epithelial cell line); test: MTT cytotoxicity test, A549; format: cell-based
Experimental: (§1) MTT assay, depending on the capability of metabolically active cells that change the pale yellow MTT colour to a spectrophotometrically measured blue formazan salt, is one of the most favoured cytotoxicity tests. We assessed the antitumor potential of new benzothiazole-acylhydrazones on A549, C6, MCF-7, and HT-29 cell lines with various concentrations (1 mM, 0.316 mM, 0.1 mM, 0.0316 mM, 0.01 mM, 0.00316 mM, 0.001 mM, 0.000316 mM). In addition, the cytotoxic activities of compounds 4a–4j were evaluated against healthy NIH3T3 cells, owing to show the selectivity towards carcinogenic cells. The IC50 values of the compounds against cell lines are represented in Table 1.
(§2) Metabolic activity of viable cells was measured by MTT assay based on the reduction of 3-(4,5-dimethylthiazol-2-yl)-2,5-diphenyltetrazolium salt to a formazan product, which can be quantified spectrophotometrically to determine the percent of viable cells.
(§3) Anticancer activities of new benzothiazole acylhydrazones derivatives were evaluated against A549 C6, MCF-7 and HT-29 cell lines. The selectivity of their cytotoxic effects was evaluated on NIH/3T3 mouse embryonic fibroblast cells. NIH/3T3 cells were incubated in DMEM supplemented with fetal calf serum, penicillin (100 IU/mL), streptomycin ([…]) and 7.5% NaHCO3 at 37 °C in a humidified atmosphere of 95% air and 5% CO2. Carcinogenic cells were incubated in RPMI medium supplemented with fetal calf serum, penicillin (100 IU/mL), streptomycin ([…]) and 7.5% NaHCO3 at 37 °C in a humidified atmosphere of 95% air and 5% CO2. All cell lines were seeded at a density of 1 × 10^4 cells into the 96-well plates. After 24 h of incubating period, the culture mediums were removed and test compounds were added at concentrations of 0.000316–1 mM. After a 24 h incubation period, OD of samples were measured by a microplate reader (Biotek, Winooski, VT, USA) at 540 nm. Inhibition % at concentrations was determined using the formula below and IC50 values were calculated by nonlinear regression analysis using the SigmaPlot v.10 package program (Manufacturer, City, US State abbrev. if applicable, Country).

[2] = system: C6 (Rat brain glioma cell line); test: MTT cytotoxicity test, C6; format: cell-based; conditions: 24 h incubation
Experimental: as §1, §2, §3

[3] = system: MCF-7 (Human breast adenocarcinoma cell line); test: MTT cytotoxicity test, MCF-7; format: cell-based
Experimental: as §1, §2, §3

[4] = system: HT-29 (Human colorectal adenocarcinoma cell line); test: MTT cytotoxicity test, HT-29; format: cell-based
Experimental: as §1, §2, §3

[5] = system: NIH3T3 (Mouse embryo fibroblast cell line); test: MTT cytotoxicity test, healthy NIH3T3 cells; format: cell-based; conditions: for IC50: MTT, 24 h incubation, healthy cells
Experimental: as §1, §2, §3

C6 cell line = test: Flow cytometric analysis (Annexin V-FITC/PI); format: cell-based, Rat; conditions: for Q1 percentage of necrotic cells / Q2 percentage of late apoptotic cells / Q4 percentage of early apoptotic cells / Q3 percentage of viable cells / viability at 15 µM: 24 h; for percentages of apoptotic cells: C6, at IC50 concentrations, 24 h (sum of Q2 and Q4); for viability at 15 µM: Rattus norvegicus, read-out: Q3 percentage of viable cells
Excerpt: In the therapy of cancer, apoptosis, or programmed cell death, is one of the distinguished mechanisms of cytotoxic agents. It is an important approach to express the cell death pathway and most of the anticancer drugs induce apoptosis in tumor cells. Annexin V-FITC is a reagent that can detect and measure quantitate of apoptotic cells by flow cytometry. Staining cells with PI and Annexin V-FITC show the differences between live, apoptotic, dead, and late apoptotic or necrotic cells. Thus, this method provides evidence on the pathway of cell death.
Death pathway of the carcinogenic cell lines was detected by Annexin V-FITC Apoptosis Detection Kit (BD, Pharmingen, City, US State abbrev. if applicable, Country) as reported in the manufacturer’s instructions. […] After 24 h incubation period, cells were harvested by centrifugation at 1200 rpm for 5 min. at room temperature, rinsed with cold water twice and then suspended at 1 × 10^6 cells/mL concentration in Annexin V-FITC binding buffer. Propidium iodide ([…]) and annexin V-FITC ([…]) were added for staining the cells and the fluorescence measurements was performed using a flow cytometer. FCSExpress software (version, Manufacturer, City, US State abbrev. if applicable, Country) was used to display the percent of normal and apoptotic cells at different stages. […] The experiments were carried out in triplicate.

[6] = system: DNA synthesis of C6 cells; test: DNA synthesis inhibition assay (BrdU cell proliferation); format: cell-based, Rat; conditions: C6, IC50/4 to 4 × IC50, 24 h
Experimental: This immunostaining assay is related to detecting the attendance of BrdU into nuclear DNA instead of thymidine during S-phase of the cell cycle using specific anti-BrdU antibodies. Thus, this study was performed to evaluate inhibitory effects of compounds 4d, 4e, and 4h on proliferation of C6 cell lines. […] Figure 2 represents the DNA synthesis inhibitory effect of compounds 4d, 4e, and 4h on C6 cells.
The BrdU cell proliferation method was performed to analyse the effects of compounds 4d, 4e and 4h on proliferation of C6 cells. C6 cells were seeded into the 96-well plates at a density of 1 × 10^4 cells. […] At the end of the incubation period, BrdU solution was added and cells were reincubated for 2 h at 37 °C. Anti-BrdU-POD ([…]) was added and the mixture was incubated for 90 min. Microplates were washed with PBS for three times. After adding substrate solution, the mixture was incubated for 15 min. OD of the wells were determined at 492 nm.

[7] = Homo sapiens, A549, 24 h incubation
[8] = Homo sapiens, MCF7, 24 h incubation
[9] = Homo sapiens, HT-29, 24 h incubation

SMILES	Q1 percentage of necrotic cells (C6 cell line; C6, IC50 (0.03 mM)) [%]	Q2 percentage of late apoptotic cells (C6 cell line; C6, IC50 (0.03 mM)) [%]	Q4 percentage of early apoptotic cells (C6 cell line; C6, IC50 (0.03 mM)) [%]	percentages of apoptotic cells (C6 cell line) [%]	IC50 [1, 7] [µM]	IC50 ([2]; Rattus norvegicus, Glioma cell) [µM]	IC50 [3, 8] [µM]	IC50 [4, 9] [µM]	IC50 ([5]; Mus musculus, NIH3T3) [µM]	melting point [°C]	further results
N.N.[Cl][Pt][Cl] [Cisplatin, reference compound]	3.5	18.3	2.6	20.9							IC50 ([1]; 24 h incubation): 60 µM; IC50 [2]: 30 µM; IC50 ([3]; 24 h incubation): 50 µM; IC50 ([4]; 24 h incubation): 60 µM; IC50 [5]: > 1000 µM
O=C(CSc1nc2cc(Cl)ccc2s1)NN=Cc1ccc(N2CCCCC2)cc1 [Compound 4a, 2-((5-Chlorobenzothiazol-2-yl)thio)-N’-(4-(piperidin-1-yl)benzylidene)acetohydrazide]					> 1000	100	490	520	100	178 to 179	
CC1CCCCN1c1ccc(C=NNC(=O)CSc2nc3cc(Cl)ccc3s2)cc1 (stereo not shown) [Compound 4b, 2-((5-Chlorobenzothiazol-2-yl)thio)-N’-(4-(2-methylpiperidin-1-yl)benzylidene)acetohydrazide]					1000	100	> 1000	1000	100	138 to 139	
CC1CCCN(c2ccc(C=NNC(=O)CSc3nc4cc(Cl)ccc4s3)cc2)C1 (stereo not shown) [Compound 4c, 2-((5-Chlorobenzothiazol-2-yl)thio)-N’-(4-(3-methylpiperidin-1-yl)benzylidene)acetohydrazide]					520	100	100	300	30	149 to 150	
CC1CCN(c2ccc(C=NNC(=O)CSc3nc4cc(Cl)ccc4s3)cc2)CC1 [Compound 4d, 2-((5-Chlorobenzothiazol-2-yl)thio)-N’-(4-(4-methylpiperidin-1-yl)benzylidene)acetohydrazide]	6.9	3.1	2.4	5.5	> 1000	30	100	300	> 1000		DNA synthesis inhibitory activity compared with cisplatin [6]: higher inhibition potency than cisplatin at all concentrations; Q1 percentage of necrotic cells (C6 cell line; C6, 2 × IC50 (0.06 mM)): 4.5%; Q2 percentage of late apoptotic cells (C6 cell line; C6, 2 × IC50 (0.06 mM)): 7.1%; Q3 percentage of viable cells (C6 cell line; C6, 2 × IC50 (0.06 mM)): 74.5%; Q4 percentage of early apoptotic cells (C6 cell line; C6, 2 × IC50 (0.06 mM)): 13.9%; Q3 percentage of viable cells (C6 cell line; C6, IC50 (0.03 mM)): 87.6%; Q1 percentage of necrotic cells (C6 cell line; C6, IC50/2 (0.015 mM)): 16.4%; Q2 percentage of late apoptotic cells (C6 cell line; C6, IC50/2 (0.015 mM)): 12.3%; Q4 percentage of early apoptotic cells (C6 cell line; C6, IC50/2 (0.015 mM)): 0.1%; viability at 15 µM (C6 cell line; C6, IC50/2 (0.015 mM)): 71.2%
COc1ccc(N2CCN(c3ccc(C=NNC(=O)CSc4nc5cc(Cl)ccc5s4)cc3)CC2)cc1 [Compound 4e, 2-((5-Chlorobenzothiazol-2-yl)thio)-N’-(4-(4-(4-methoxyphenyl)piperazin-1-yl)benzylidene)acetohydrazide]	9.8	16.0	3.5	19.5	30	30	300	> 1000	10		selectivity index (SI) ([5]; NIH3T3 versus cancer cells): 0.33; DNA synthesis inhibitory activity compared with cisplatin [6]: higher antiproliferative effect than cisplatin at the concentrations of IC50/2, IC50, 2 × IC50, and 4 × IC50; Q1 percentage of necrotic cells (C6 cell line; C6, 2 × IC50 (0.06 mM)): 10.1%; Q2 percentage of late apoptotic cells (C6 cell line; C6, 2 × IC50 (0.06 mM)): 14.0%; Q3 percentage of viable cells (C6 cell line; C6, 2 × IC50 (0.06 mM)): 73.3%; Q4 percentage of early apoptotic cells (C6 cell line; C6, 2 × IC50 (0.06 mM)): 2.5%; Q3 percentage of viable cells (C6 cell line; C6, IC50 (0.03 mM)): 70.7%; Q1 percentage of necrotic cells (C6 cell line; C6, IC50/2 (0.015 mM)): 13.5%; Q2 percentage of late apoptotic cells (C6 cell line; C6, IC50/2 (0.015 mM)): 3.8%; Q4 percentage of early apoptotic cells (C6 cell line; C6, IC50/2 (0.015 mM)): 0%; viability at 15 µM (C6 cell line; C6, IC50/2 (0.015 mM)): 82.6%
COc1ccc2sc(SCC(=O)NN=Cc3ccc(N4CCCCC4)cc3)nc2c1 [Compound 4f, 2-((5-Methoxybenzothiazol-2-yl)thio)-N’-(4-(piperidin-1-yl)benzylidene)acetohydrazide]					> 1000	> 1000	> 1000	> 1000	30	138 to 139	
COc1ccc2sc(SCC(=O)NN=Cc3ccc(N4CCCCC4C)cc3)nc2c1 (stereo not shown) [Compound 4g, 2-((5-Methoxybenzothiazol-2-yl)thio)-N’-(4-(2-methylpiperidin-1-yl)benzylidene)acetohydrazide]					> 1000	> 1000	> 1000	> 1000	100	138 to 139	
COc1ccc2sc(SCC(=O)NN=Cc3ccc(N4CCCC(C)C4)cc3)nc2c1 (stereo not shown) [Compound 4h, 2-((5-Methoxybenzo[d]thiazol-2-yl)thio)-N’-(4-(3-methylpiperidin-1-yl)benzylidene)acetohydrazide]	8.6	7.4	4.6	12.0	> 1000	30	> 1000	> 1000	100		DNA synthesis inhibitory activity compared with cisplatin [6]: could not display the same ability as compounds 4d and 4e to inhibit DNA synthesis; Q1 percentage of necrotic cells (C6 cell line; C6, 2 × IC50 (0.06 mM)): 5.4%; Q2 percentage of late apoptotic cells (C6 cell line; C6, 2 × IC50 (0.06 mM)): 10.5%; Q3 percentage of viable cells (C6 cell line; C6, 2 × IC50 (0.06 mM)): 75.2%; Q4 percentage of early apoptotic cells (C6 cell line; C6, 2 × IC50 (0.06 mM)): 8.9%; Q3 percentage of viable cells (C6 cell line; C6, IC50 (0.03 mM)): 79.4%; Q1 percentage of necrotic cells (C6 cell line; C6, IC50/2 (0.015 mM)): 10.8%; Q2 percentage of late apoptotic cells (C6 cell line; C6, IC50/2 (0.015 mM)): 4.9%; Q4 percentage of early apoptotic cells (C6 cell line; C6, IC50/2 (0.015 mM)): 0.3%; viability at 15 µM (C6 cell line; C6, IC50/2 (0.015 mM)): 84.1%
COc1ccc2sc(SCC(=O)NN=Cc3ccc(N4CCC(C)CC4)cc3)nc2c1 [Compound 4i, 2-((5-Methoxybenzo[d]thiazol-2-yl)thio)-N’-(4-(4-methylpiperidin-1-yl)benzylidene)acetohydrazide]					490	100	300	1000	30	149 to 150	
COc1ccc(N2CCN(c3ccc(C=NNC(=O)CSc4nc5cc(OC)ccc5s4)cc3)CC2)cc1 [Compound 4j, 2-((5-Methoxybenzo[d]thiazol-2-yl)thio)-N’-(4-(4-(4-methoxyphenyl)piperazin-1-yl)benzylidene)acetohydrazide]					> 1000	> 1000	> 1000	> 1000	> 1000	199 to 200	

From publication PMC6102592, “Synthesis of New Benzothiazole Acylhydrazones as Anticancer Agents” (Molecules : A Journal of Synthetic Chemistry and Natural …, 2018)
